Source: patent US20260021119A1, “TETRACYCLINE DERIVATIVES” (ICM (INSTITUT DU CERVEAU ET DE LA MOELLE ÉPINIÈRE), priority 2022, published 2026)
Values after ≈ are worked out from the molar mass of the structure shown. Like-named read-outs stand apart in the source and are kept apart here.

What was measured:
P. aeruginosa PA01 [1] = experiment: MIC, standardized protocols (Example 9); assay type: cell-based; settings: Pseudomonas aeruginosa
Text: (§1) Bacterial strains used in this study were: S. aureus (ATCC25923), E. coli (ATCC28922), E. faecalis (ATCC29212) and P. aeruginosa (PA01). The minimum inhibitory concentrations (MICs) were estimated using standardized protocols (Mawabo et al, J. Infect. Public Health 2015).

E. faecalis ATCC 29212 [2] = experiment: MIC, standardized protocols (Example 9); assay type: cell-based; settings: Enterococcus faecalis, ATCC29212
Text: as §1

E. coli ATCC 28922 = experiment: MIC, standardized protocols (Example 9); assay type: cell-based; settings: Escherichia coli, ATCC28922
Text: as §1

S. aureus ATCC 25923 [3] = experiment: MIC, standardized protocols (Example 9); assay type: cell-based; settings: Staphylococcus aureus, ATCC25923
Text: as §1

4 test bacterial strains = experiment: Antimicrobial effects, summary over the 4 test bacterial strains (Example 9); assay type: cell-based
Text: as §1

alpha-synuclein = alpha-synuclein (Homo sapiens, UniProt P37840); experiment: alpha-synuclein aggregation, thioflavin T (ThT) fluorescence; assay type: biochemical; settings: 20 μM
Experimental: The antiaggregant effect of the compound of formula (Ia) according to the present invention on alpha-synuclein (αS) was evaluated in vitro by measuring the fluorescence intensity of the probe thioflavin T (ThT), a molecule that specifically binds to cross-β structures characteristic of amyloid-like aggregation. The compound of formula (Ia) was dissolved in dimethylsulfoxide to reach a concentration of […]. In this assay, 70 μM of alpha-synuclein was incubated with and without 10 μM, 20 μM and 50 μM of the compound of formula (Ia), under orbital agitation (600 rpm), at 37° C., for 5 days. After the incubation time, Tht was added to each sample and changes in the emission fluorescence spectra (λex=450 and λem=[…]) was monitored using a Horiba Fluoromax CP4 spectrofluorometer.

[4] = test system: dopaminergic neurons (TH+ neurons); experiment: Neuroprotection: rescue of dopamine neurons from spontaneous oxidative stress in primary cultures; assay type: cell-based; settings: for EC50: Neuron, read-out: Neuroprotection (EC 50 μM)
Experimental: In primary cultures of dopaminergic neurons, TH+ neurons suffer from oxidative stress, leading to the death of the neurons after a few days. When cultured in the presence of a positive reference (apotransferrin), the dopaminergic neurons survive. The neuroprotective effects of 10 μM of doxycycline (DOX) and of 3 μM or 5 μM of the compound of formula (Ia) according to the present invention were evaluated, compared to the effect of 100 μg/mL of apotransferrin (APO).
(§2) The properties of tetracycline derivatives, including the compound of formula (Ia) according to the present invention, were compared regarding the neuroprotection, anti-inflammatory effects, anti-aggregant activity, and antibiotic activity. The properties were evaluated as described herein above.
(§3) EC50s, IC50s determined graphically, *Rescue of dopamine neurons from spontaneous oxidative stress; ** TNF α release inhibition under LPS exposure, ^#Weak antibiotic activity on only 1 of the 3 bacterial strains (i.e. S aureus). ##Strong antibiotic activity on all 3 bacterial strains. ^###Significant antibiotic activity on two bacterial strains.

[5] = test system: microglia cells (TNF α release under LPS); experiment: Anti-inflammatory effect in microglia, TNF α release inhibition under LPS exposure; assay type: cell-based; settings: TNF α release inhibition under LPS exposure, determined graphically; for IC50: Microglia, read-out: Anti inflammatory effects (IC 50 in μM)
Experimental: Microglia is in charge of the protection of the neurons. However, under stress conditions, microglia cells are responsible of inflammatory phenomena, leading eventually to the death of the neurons. The anti-inflammatory effects of 5 μM and 20 μM of compound of formula (B) presented in Example 1, of 5 μM and 20 μM of compound of formula (Ia) according to the present invention and of 50 μM of doxycycline (DOX) were evaluated, compared to the effect of 2.5 μM of dexamethasone (DEX). Microglia is in charge of the protection of the neurons. However, under stress conditions, microglia cells are responsible of inflammatory phenomena, leading eventually to the death of the neurons. The anti-inflammatory effects of 10 μM and 20 μM of compound of formula (C) (“10 μM (C)” and “20 μM (C)”) and of 10 μM and 20 μM of compound of formula (Ia) according to the present invention (“10 μM (Ia)” and “20 μM (Ia)”) were evaluated, compared to the effect of 2.5 μM of dexamethasone (“DEX”). The properties of tetracycline derivatives, including the compound of formula (Ia) according to the present invention, were compared regarding the neuroprotection, anti-inflammatory effects, anti-aggregant activity, and antibiotic activity. The properties were evaluated as described herein above. EC50s, IC50s determined graphically, *Rescue of dopamine neurons from spontaneous oxidative stress; ** TNF α release inhibition under LPS exposure, ^#Weak antibiotic activity on only 1 of the 3 bacterial strains (i.e. S aureus). ##Strong antibiotic activity on all 3 bacterial strains. ^###Significant antibiotic activity on two bacterial strains.

[6] = test system: Gram+ and Gram- bacteria (S. aureus, E. coli, E. faecalis, P. aeruginosa); experiment: Antibiotic activity, summary over the bacterial strains (Examples 3 and 7); assay type: cell-based; design: key to Antibiotic activity: low: Weak antibiotic activity on only 1 of the 3 bacterial strains (i.e. S aureus); high: Strong antibiotic activity on all 3 bacterial strains; Significant antibiotic activity on two bacterial strains; settings: summary over bacterial strains
Experimental: (§4) Bacterial strains used in this study were: S. aureus (ATCC25923), E. coli (ATCC25922), E. faecalis (ATCC29212) and P. aeruginosa (PA01). Strains were maintained at −80° C. in 15% (v/v) glycerol for cryoprotection. Bacteria were routinely grown in Mueller-Hinton (MH) broth at 37° C.
(§5) The susceptibility of bacterial strains to antibiotics and compounds was determined in microplates using the standard broth dilution method in accordance with the recommendations of the Comité de 1′Antibiogramme de la Société Française de Microbiologie (CA-SFM). (Members of the SFM Antibiogram Committee, R. Int. J. Antimicrob. Agents 2003, 21, 364). Briefly, the Minimal Inhibitory Concentrations (MICs) were determined with an inoculum of 10^5 CFU in 200 μL of MH broth containing two-fold serial dilutions of each drug. […] To determine all MICs, the measurements were independently repeated in triplicate.
(§6) The compound of formula (Ia) according to the invention was tested against clinical isolates Gram-bacteria (P. aeruginosa, E. coli) and Gram+ bacteria (S. aureus, E. faecalis). Minimum inhibitory concentrations (MIC) were tentatively determined and compared to known antibiotic tetracyclines (doxycycline, demeclocycline, chlortetracycline) and to the compound of formula (B) disclosed in Example 1 of the present application. The test was reproduced twice and the average MIC were calculated.
as §2, §3

P. aeruginosa PA01 [7] = experiment: MIC, broth dilution (Example 3); assay type: cell-based; settings: Pseudomonas aeruginosa, 18 h at 37° C., MH broth
Experimental: as §4, §5, §6

E. faecalis ATCC 29212 [8] = experiment: MIC, broth dilution (Example 3); assay type: cell-based; settings: Enterococcus faecalis, ATCC29212; 18 h at 37° C., MH broth
Experimental: as §4, §5, §6

E. coli ATCC 25922 = experiment: MIC, broth dilution (Example 3); assay type: cell-based; settings: Escherichia coli, ATCC25922; 18 h at 37° C., MH broth
Experimental: as §4, §5, §6

S. aureus ATCC 25923 [9] = experiment: MIC, broth dilution (Example 3); assay type: cell-based; settings: Staphylococcus aureus, ATCC25923; 18 h at 37° C., MH broth
Experimental: as §4, §5, §6

dopamine neurons = experiment: Neuroprotection in midbrain mouse cultures, survival of TH+ dopamine neurons; assay type: cell-based; settings: 10 μM, div14
Experimental: (§7) Midbrain mouse cultures were subjected to a maturation step until day in vitro (div) 7, and then gradually exposed to phenol red formulated DMEM/Nutrient mixture F12 Ham supplemented with 20 μg/mL of insulin and 2 μM of the NMDA receptor blocker MK-801. Under these conditions, which favor low-level, sustained oxidative insults, and lead ultimately to dopamine cell death, treatments with the compound of formula (Ib) according to the invention (at a concentration ranging from 0.1 to 5 μM) were performed or not, as well as treatments with the reference tetracycline antibiotic doxycycline (DOX; 10 μM) and the glycoprotein apotransferrin (APO; 100 μg/mL), the latter being used as reference neuroprotectant. At div14, cultures were fixed, and then processed for tyrosine hydroxylase (TH) immunocytochemistry to estimate the survival of dopamine neurons.
as §7, with “(Ic)” for “(Ib)”, “with” for “with the reference tetracycline antibiotic doxycycline (DOX; 10 μM) and”

[10] = Brain penetration after single subcutaneous injection; assay type: in vivo; settings: mouse, brain and serum, sc; 40 mg/kg single subcutaneous injection, Swiss mice, 30 min to 24 h, n=3; read-out: brain-to-plasma ratio calculated from the area under the concentration time curves
Experimental: Adult Swiss mice received a single subcutaneous injection of 40 mg/kg of the compound of formula (Ia) according to the present invention, the compound of formula (C), or doxycycline diluted in saline with 5% DMSO and 5% Tween 80 (doxycycline was used as a reference tetracycline). The mice were sacrificed 30 min, 1 h, 8 h, and 24 h after treatment. After sacrifice, brain and serum samples were collected and processed at each time point for tetracycline dosage, using an UHPLC system coupled with a triple quadrupole mass spectrometer LCMS-8030 (Shimadzu Corporation, Kyoto, Japan).

[11] = rescue of dopamine neurons from spontaneous oxidative stress, determined graphically

Row | SMILES | Anti aggregant activity at 20 μM (alpha-synuclein) | Anti inflammatory effects (IC 50 in μM) [5] | Antibiotic activity [6] | MIC (P. aeruginosa PA01 [7]) [µM] | MIC (E. faecalis ATCC 29212 [8]) [µM] | MIC (E. coli ATCC 25922) [µM] | MIC (S. aureus ATCC 25923 [9]) [µM] | Neuroprotection (EC 50 μM) [4, 11] | IC50 [5] [µM] | also measured
1 | CN(C)[C@@H]1C(O)=C(C(N)=O)C(=O)[C@@]2(O)C(O)=C3C(=O)c4c(O)cccc4[C@@](C)(O)[C@H]3[C@H](O)[C@@H]12 [Oxytetracycline] | – | – | – | – | – | – | – | – | – | MIC (P. aeruginosa PA01 [1]): 50 µM (≈ 23 µg/mL); MIC (E. faecalis ATCC 29212 [2]): 3.12 µM (≈ 1.44 µg/mL); MIC (E. coli ATCC 28922): 3.12 µM (≈ 1.44 µg/mL); MIC (S. aureus ATCC 25923 [3]): 3.12 µM (≈ 1.44 µg/mL); antimicrobial effects against the 4 test bacterial strains (4 test bacterial strains): exerts antimicrobial effects against 3 of the 4 test bacterial strains
2 | CN(C)[C@@H]1C(O)=C(C(N)=O)C(=O)[C@@]2(O)C(O)=C3C(=O)c4c(O)ccc(Cl)c4[C@@H](O)C3CC12 (stereo partly drawn) [Compound of formula (D)] | yes | no | high^## | – | – | – | – | – | – | EC50 [4, 11]: 1.84 µM
3 | CN(C)[C@@H]1C(O)=C(C(N)=O)C(=O)[C@@]2(O)C(O)=C3C(=O)c4c(O)ccc(Cl)c4[C@@H](O)[C@H]3C[C@@H]12 [Demeclocycline] | – | – | – | 32 (≈ 14.9 µg/mL) | 0.4 (≈ 0.186 µg/mL) | 3.12 (≈ 1.45 µg/mL) | 0.4 (≈ 0.186 µg/mL) | – | – | –
4 | CN(C)[C@@H]1C(O)=C(C(N)=O)C(=O)[C@@]2(O)C(O)=C3C(=O)c4c(O)ccc(Cl)c4[C@@](C)(O)[C@H]3C[C@@H]12 [Chlortetracycline] | yes | – | high | 32 (≈ 15.3 µg/mL) | 1.6 (≈ 0.766 µg/mL) | 6.25 (≈ 2.99 µg/mL) | 1.6 (≈ 0.766 µg/mL) | no | 1 | –
5 | C[C@H]1c2cccc(O)c2C(=O)C2=C(O)[C@]3(O)C(=O)C(C(N)=O)=C(O)[C@@H](N(C)C)[C@@H]3[C@@H](O)[C@@H]21 [Doxycycline] | yes | – | high | 64 (≈ 28.4 µg/mL) | 0.4 (≈ 0.178 µg/mL) | 3.12 (≈ 1.39 µg/mL) | 0.4 (≈ 0.178 µg/mL) | – | 45 | neuroprotective effect ([4]; 10 μM, compared to apotransferrin 100 μg/mL): shows a neuroprotective effect; EC50 [4, 11]: 5.2 µM; neuroprotective effect (survival of dopamine neurons) (dopamine neurons): shows a neuroprotective effect; Kp [10]: 0.11 ± 0.03
6 | CC1(O)c2c(Cl)ccc(O)c2C(=O)C2=C(O)C3C(=O)C(C(N)=O)=C(O)CC3CC21 (stereo not drawn) [Compound of formula (E)] | yes | no | low | – | – | – | – | – | – | EC50 [4]: 2.01 µM
7 | C[C@H]1c2cccc(O)c2C(=O)C2=C(O)[C@]3(O)C(=O)C(C(N)=O)=C(O)C[C@@H]3[C@@H](O)[C@@H]21 [Compound of formula (B)] | yes | no | low | > 2000 | – | 200 | 25 | no | – | –
8 | CC1c2ccc(-c3ccccc3)c(O)c2C(=O)C2=C(O)C3(O)C(=O)C(C(N)=O)=C(O)CC3[C@@H](O)C21 (stereo partly drawn) [Compound of formula (G)] | yes | – | low | – | – | – | – | no | 8 | –
9 | NC(=O)C1=C(O)C[C@@H]2C[C@@H]3Cc4cccc(O)c4C(=O)C3=C(O)[C@]2(O)C1=O [Compound of formula (F), incyclinide] | yes | – | Significant^### | – | – | – | – | no | 8 | –
